Assay results: patent publication US20230365561A1, “BETA-LACTAMASE INHIBITORS AND THEIR PREPARATION” (NINGXIA ACADEMY OF AGRICUL TURE AND FORESTRY SCIENCES, priority 2020, published 2023)
Where a name gives a salt, the structure may show the parent alone. Read-outs that look alike come from different tables or passages of the source.

How the values were obtained:
Assay type in all cases: cell-based
[1] = test system: E. cloacae 700323 (strain 6); assay: MIC by broth microdilution (alone and in combination with meropenam), strain 6; conditions: Enterobacter cloacae, compound alone
Method in brief: (§1)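 Meropenem was diluted two-fold (0.125-64 mg/L final) in cation-adjusted Mueller-Hinton Broth II, with or without a constant 4 µg/mL of test compound. Bacteria were added at roughly 5x10^5 CFU/mL, plates incubated 37° C for 18-24 h, and growth inspected visually for the MIC.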

[2] = test system: E. cloacae clinical isolate (strain 5); assay: MIC by broth microdilution (alone and in combination with meropenam), strain 5; conditions: Enterobacter cloacae, compound alone
Method in brief: as §1

[3] = test system: A. baumannii clinical isolate (strain 7); assay: MIC by broth microdilution (alone and in combination with meropenam), strain 7; conditions: Acinetobacter baumannii, compound alone
Method in brief: as §1

[4] = test system: K. pneumoniae 700603 (strain 4); assay: MIC by broth microdilution (alone and in combination with meropenam), strain 4; conditions: Klebsiella pneumoniae, compound alone
Method in brief: as §1

[5] = test system: P. aeruginosa clinical isolate (strain 9); assay: MIC by broth microdilution (alone and in combination with meropenam), strain 9; conditions: Pseudomonas aeruginosa, compound alone
Method in brief: as §1

[6] = test system: A. baumannii 19606 (strain 8); assay: MIC by broth microdilution (alone and in combination with meropenam), strain 8; conditions: Acinetobacter baumannii, compound alone
Method in brief: as §1

[7] = test system: K. pneumoniae clinical isolate (strain 3); assay: MIC by broth microdilution (alone and in combination with meropenam), strain 3; conditions: Klebsiella pneumoniae, compound alone
Method in brief: as §1

E. coli 8739 (strain 2) = assay: MIC by broth microdilution (alone and in combination with meropenam), strain 2; conditions: Escherichia coli, compound alone
Method in brief: as §1

[8] = test system: P. aeruginosa 9027 (strain 10); assay: MIC by broth microdilution (alone and in combination with meropenam), strain 10; conditions: Pseudomonas aeruginosa, compound alone
Method in brief: as §1

[9] = test system: E. coli clinical isolate (strain 1); assay: MIC by broth microdilution (alone and in combination with meropenam), strain 1; conditions: Escherichia coli, compound alone
Method in brief: as §1

[10] = read-out: MIC, antibacterial activity of example alone

Measured: MIC

N=C(NC(=O)c1ccc(F)cc1)[C@@H]1CC[C@@H]2CN1C(=O)N2OS(=O)(=O)O [Ex.17, (2S,5R)-2-(N-(4-fluorobenzoyl)carbamimidoyl)-7-oxo-1,6-diazabicyclo[3.2.1]octan-6-yl Hydrogen Sulfate]
> 64 µg/mL: [1]; [10] | [2]; [10] | [3]; [10] | [4]; [10] | [5]; [10] | [6]; [10] | [7]; [10] | E. coli 8739 (strain 2); [10] | [8]; [10] | [9]; [10]

N=C(NC(=O)c1ccc(C(F)(F)F)cc1)[C@@H]1CC[C@@H]2CN1C(=O)N2OS(=O)(=O)[O-].[Na+] [Ex.49, Sodium (2S,5R)-7-oxo-2-(N-(4-(trifluoromethyl)benzoyl)carbamimidoyl)-1,6-diazabicyclo[3.2.1]octan-6-yl Sulfate]
> 64 µg/mL: [1]; read-out: MIC | [2]; read-out: MIC | [3]; read-out: MIC | [4]; read-out: MIC | [5]; read-out: MIC | [6]; read-out: MIC | [7]; read-out: MIC | E. coli 8739 (strain 2); read-out: MIC | [8]; read-out: MIC | [9]; read-out: MIC

N=C(NC(=O)C1CCCCC1)[C@@H]1CC[C@@H]2CN1C(=O)N2OS(=O)(=O)[O-].[Na+] [Ex.37, Sodium (2S,5R)-2-(N-(cyclohexanecarbonyl)carbamimidoyl)-7-oxo-1,6-diazabicyclo[3.2.1]octan-6-yl Sulfate]
> 64 µg/mL: [1]; [10] | [2]; [10] | [3]; [10] | [4]; [10] | [5]; [10] | [6]; [10] | [7]; [10] | E. coli 8739 (strain 2); [10] | [8]; [10] | [9]; [10]

CN1CCC[C@@H](C(=O)NC(=N)[C@@H]2CC[C@@H]3CN2C(=O)N3OS(=O)(=O)[O-])C1.[Na+] [Ex.29, Sodium (2S,5R)-2-(N-((R)-1-methylpiperidine-3-carbonyl)carbamimidoyl)-7-oxo-1,6-diazabicyclo[3.2.1]octan-6-yl Sulfate]
> 64 µg/mL: [1]; [10] | [2]; [10] | [3]; [10] | [4]; [10] | [5]; [10] | [6]; [10] | [7]; [10] | E. coli 8739 (strain 2); [10] | [8]; [10] | [9]; [10]

N=C(NC(=O)C1CCNCC1)[C@@H]1CC[C@@H]2CN1C(=O)N2OS(=O)(=O)[O-].[Na+] [Ex.18, Sodium (2S,5R)-7-oxo-2-(N-(piperidine-4-carbonyl)carbamimidoyl)-1,6-diazabicyclo[3.2.1]octan-6-yl Sulfate]
> 64 µg/mL: [1]; [10] | [2]; [10] | [3]; [10] | [4]; [10] | [5]; [10] | [6]; [10] | [7]; [10] | E. coli 8739 (strain 2); [10] | [8]; [10] | [9]; [10]

CC(=O)N1CCC(C(=O)NC(=N)[C@@H]2CC[C@@H]3CN2C(=O)N3OS(=O)(=O)[O-])CC1.[Na+] [Ex.4, Sodium (2S,5R)-2-(N-(1-acetylpiperidine-4-carbonyl)carbamimidoyl)-7-oxo-1,6-diazabicyclo[3.2.1]octan-6-yl Sulfate]
> 64 µg/mL: [1]; [10] | [2]; [10] | [3]; [10] | [4]; [10] | [5]; [10] | [6]; [10] | [7]; [10] | E. coli 8739 (strain 2); [10] | [8]; [10] | [9]; [10]

CC(=O)NC(=N)[C@@H]1CC[C@@H]2CN1C(=O)N2OS(=O)(=O)O [Ex.9, (2S,5R)-2-(N-acetylcarbamimidoyl)-7-oxo-1,6-diazabicyclo[3.2.1]octan-6-yl Hydrogen Sulfate]
> 64 µg/mL: [1]; [10] | [2]; [10] | [3]; [10] | [4]; [10] | [5]; [10] | [6]; [10] | [7]; [10] | E. coli 8739 (strain 2); [10] | [8]; [10] | [9]; [10]

N=C(NC(=O)c1cnco1)[C@@H]1CC[C@@H]2CN1C(=O)N2OS(=O)(=O)[O-].[Na+] [Ex.21, Sodium (2S,5R)-2-(N-(oxazole-5-carbonyl)carbamimidoyl)-7-oxo-1,6-diazabicyclo[3.2.1]octan-6-yl Sulfate]
> 64 µg/mL: [1]; [10] | [2]; [10] | [3]; [10] | [4]; [10] | [5]; [10] | [6]; [10] | [7]; [10] | E. coli 8739 (strain 2); [10] | [8]; [10] | [9]; [10]

N=C(NC(=O)Cc1cccnc1)[C@@H]1CC[C@@H]2CN1C(=O)N2OS(=O)(=O)[O-].[Na+] [Ex.34, Sodium (2S,5R)-7-oxo-2-(N-(2-(pyridin-3-yl)acetyl)carbamimidoyl)-1,6-diazabicyclo[3.2.1]octan-6-yl sulfate]
> 64 µg/mL: [1]; [10] | [2]; [10] | [3]; [10] | [4]; [10] | [5]; [10] | [6]; [10] | [7]; [10] | E. coli 8739 (strain 2); [10] | [8]; [10] | [9]; [10]

CN1CC[C@@H](C(=O)NC(=N)[C@@H]2CC[C@@H]3CN2C(=O)N3OS(=O)(=O)O)C1 [Ex.33, Sodium (2S,5R)-2-(N-((R)-1-methylpyrrolidine-3-carbonyl)carbamimidoyl)-7-oxo-1,6-diazabicyclo[3.2.1]octan-6-yl Sulfate]
> 64 µg/mL: [1]; [10] | [2]; [10] | [3]; [10] | [4]; [10] | [5]; [10] | [6]; [10] | [7]; [10] | E. coli 8739 (strain 2); [10] | [8]; [10] | [9]; [10]

N=C(NC(=O)c1ccco1)[C@@H]1CC[C@@H]2CN1C(=O)N2OS(=O)(=O)O [Ex.1, (2S,5R)-2-(N-(furan-2-carbonyl)carbamimidoyl)-7-oxo-1,6-diazabicyclo[3.2.1]octan-6-yl Hydrogen Sulfate]
> 64 µg/mL: [1]; [10] | [2]; [10] | [3]; [10] | [4]; [10] | [5]; [10] | [6]; [10] | [7]; [10] | E. coli 8739 (strain 2); [10] | [8]; [10] | [9]; [10]
